{"source": "patent US20040176349A1", "about": "“Antibacterial composition” (priority 2001, published 2004)", "key": {"E. hirae ATCC 10541": {"test_system": "E. hirae ATCC 10541", "experiment": "MIC, microbroth dilution (NCCLS), Table 1", "format": "cell-based", "details": "compound alone; E. hirae ATCC 10541, vancomycin-susceptible", "protocol": "(§1) The minimum inhibitory concentration (MIC) of the compounds was determined using the microbroth dilution technique in accordance with NCCLS guidelines, employing Mueller-Hinton broth (National Committee for Clinical Laboratory Standards, NCCLS, 1995 “Methods for dilution antimicrobial susceptibility tests for bacteria that grow aerobically”—approved standard M7-A5).\n(§2) The compounds were tested in isolation, at different concentrations."}, "E. faecalis 24592": {"test_system": "E. faecalis 24592", "experiment": "MIC, microbroth dilution (NCCLS), Table 1", "format": "cell-based", "details": "compound alone; E. faecalis 24592, vancomycin-susceptible", "protocol": "as §1, §2"}, "E. faecium NCTC 7171": {"test_system": "E. faecium NCTC 7171", "experiment": "MIC, microbroth dilution (NCCLS), Table 1", "format": "cell-based", "details": "compound alone; E. faecium NCTC 7171, vancomycin-susceptible", "protocol": "as §1, §2"}, "E. faecalis SFZ": {"test_system": "E. faecalis SFZ", "experiment": "MIC, microbroth dilution (NCCLS), Table 1", "format": "cell-based", "details": "compound alone; E. faecalis SFZ, vancomycin-susceptible", "protocol": "as §1, §2"}, "E. faecalis NCTC 5957": {"test_system": "E. faecalis NCTC 5957", "experiment": "MIC, microbroth dilution (NCCLS), Table 1", "format": "cell-based", "details": "compound alone; E. faecalis NCTC 5957, vancomycin-susceptible", "protocol": "as §1, §2"}, "E. faecalis Phillips": {"test_system": "E. faecalis Phillips", "experiment": "MIC, microbroth dilution (NCCLS), Table 1", "format": "cell-based", "details": "compound alone; E. faecalis Phillips, vancomycin-susceptible", "protocol": "as §1, §2"}, "[1]": {"test_system": "enterococcal penicillin binding proteins (PBPs)", "experiment": "Radiolabelled penicillin competition assay for PBP affinity", "design": "species or system Enterococcus", "details": "in words", "protocol": "Further experiments were conducted in an attempt to determine the mechanism of the unexpected synergy between antibiotics (as exemplified by Ceftazidime) and compounds in accordance with general formula I or II (as exemplified by PFOB). The affinity of PFOB for enterococcal penicillin binding proteins (PBPs) was investigated using a conventional radiolabelling assay (Boulton & Orr 1983 “Detection of bacterial penicillin binding proteins and their role in the interpretation of the mode of action of beta-lactam antibiotics” In “Antibiotics: Assessment of antimicrobial activity and resistance” Eds. Denver & Quesnel. Society for […], Technical Series 18, pp161-182, Academic Press”). In this assay, the inner bacterial membrane containing the PBPs was extracted, exposed to differing concentrations of test agent (i.e. PFOB) and excess radiolabelled penicillin, followed by separation and visualisation of the PBPs using gel electrophoresis and fluorography."}, "[2]": {"test_system": "E. faecalis SFZ (vancomycin-sensitive isolate, VSE)", "experiment": "Time-kill experiment (viable count)", "format": "cell-based", "details": "FIG. 2, ceftazidime alone at 128 mg/L, PFOB alone at 64 mg/L", "from_the_text": "FIG. 2 is a graph of Log viable count (cfu per ml) against time (in hours) for the VSE isolate in the presence or absence of the drugs. […] The isolates used in the Example are purely illustrative and not especially unusual."}, "E. faecalis ATCC 10541": {"test_system": "E. faecalis ATCC 10541", "experiment": "Checkerboard microdilution MIC with PFOB, Table 2", "format": "cell-based", "details": "E. faecalis ATCC 10541; alone", "from_the_text": "The aim of the study was to detect any synergy between PFOB and the other antibiotics. For the purposes of the study, synergy was defined in accordance with the FIC (fractional inhibitory concentration) index, as disclosed by Lorian (1991, In “Antibiotics in Laboratory Medicine” 3rd edition, Eds. Williams & Wilkins; esp. p 434-443)."}, "VRE 300 1590": {"test_system": "VRE 300 1590", "experiment": "MIC, microbroth dilution (NCCLS), Table 1", "format": "cell-based, Enterococcus", "details": "compound alone; VRE 300 1590, vancomycin-resistant", "protocol": "as §1, §2"}, "VRE 1662": {"test_system": "VRE 1662", "experiment": "MIC, microbroth dilution (NCCLS), Table 1", "format": "cell-based, Enterococcus", "details": "compound alone; VRE 1662, vancomycin-resistant", "protocol": "as §1, §2"}, "VRE 300 2043": {"test_system": "VRE 300 2043", "experiment": "MIC, microbroth dilution (NCCLS), Table 1", "format": "cell-based, Enterococcus", "details": "compound alone; VRE 300 2043, vancomycin-resistant", "protocol": "as §1, §2"}, "VRE 300 1562": {"test_system": "VRE 300 1562", "experiment": "MIC, microbroth dilution (NCCLS), Table 1", "format": "cell-based, Enterococcus", "details": "compound alone; VRE 300 1562, vancomycin-resistant", "protocol": "as §1, §2"}, "Enterococcus strains": {"test_system": "Enterococcus strains", "experiment": "MIC against Enterococcus strains, summary of Example 1", "format": "cell-based", "details": "compound alone; all strains of Table 1; in words", "protocol": "as §1, §2"}, "E. faecalis 5659 (vanA)": {"test_system": "E. faecalis 5659 (vanA)", "experiment": "Checkerboard microdilution MIC with PFOB, Table 2", "format": "cell-based", "details": "E. faecalis 5659 (vanA); alone", "from_the_text": "(§3) The aim of the study was to detect any synergy between PFOB and the other antibiotics. For the purposes of the study, synergy was defined in accordance with the FIC (fractional inhibitory concentration) index, as disclosed by Lorian (1991, In “Antibiotics in Laboratory Medicine” 3rd edition, Eds. Williams & Wilkins; esp. p 434-443). In essence, if the combination of test compounds gives at least a 4-fold reduction in the FIC value for each compound, then a synergy may be considered to exist (i.e. FIC of the combination <0.5=synergy; FIC 0.5-2.0=“indifference”; and FIC >2=antagonism).\n(§4) In Table 2, results in the checkerboard indicating synergy are hatched, and specific optimum synergistic combinations are boxed."}, "E.faecalis 78097 (van B)": {"test_system": "E.faecalis 78097 (van B)", "experiment": "Checkerboard microdilution MIC with PFOB, Table 2", "format": "cell-based", "details": "E.faecalis 78097 (van B); alone", "from_the_text": "as §3, §4"}, "E. faecalis ATCC 29212": {"test_system": "E. faecalis ATCC 29212", "experiment": "Checkerboard microdilution MIC with PFOB, Table 2", "format": "cell-based", "details": "E. faecalis ATCC 29212; alone", "from_the_text": "as §3, §4"}}}
{"molecule": "C[C@@H](O)[C@H]1C(=O)N2C(C(=O)O)=C(C(C)(C)CCCN)O[C@H]12", "note": "[(1′R, 5R, 6R)-2-(4-amino-1,1-dimethylbutyl)-6-(1′-hydroxyethyl) oxapenem-3-carboxylic acid]", "values": [{"measurement": "MIC", "setting": "E. hirae ATCC 10541", "value": 16, "unit": "µg/mL"}, {"measurement": "MIC", "setting": "E. faecalis 24592", "value": 32, "unit": "µg/mL"}, {"measurement": "MIC", "setting": "E. faecium NCTC 7171", "value": 16, "unit": "µg/mL"}, {"measurement": "MIC", "setting": "E. faecalis SFZ", "value": 64, "unit": "µg/mL"}, {"measurement": "MIC", "setting": "E. faecalis NCTC 5957", "value": 32, "unit": "µg/mL"}, {"measurement": "MIC", "setting": "E. faecalis Phillips", "value": 32, "unit": "µg/mL"}, {"measurement": "affinity for PBPs compared with clavulanic acid", "setting": "[1]; FIG. 4A versus FIG. 4B", "value": "much higher affinity"}, {"measurement": "binding to PBPs in competition with radiolabelled penicillin", "setting": "[1]; FIG. 4A, PFOB concentration of 3 mg/L", "value": "nearly all PBPs are bound by PFOB, except PBP3"}, {"measurement": "effect on growth (viable count, time-kill)", "setting": "[2]", "value": "some inhibitory effect on growth"}, {"measurement": "MIC (alone) of PFOB", "setting": "E. faecalis ATCC 10541", "value": 16, "unit": "µg/mL"}, {"measurement": "MIC", "setting": "VRE 300 1590", "value": ">128", "unit": "µg/mL"}, {"measurement": "MIC", "setting": "VRE 1662", "value": ">128", "unit": "µg/mL"}, {"measurement": "MIC", "setting": "VRE 300 2043", "value": 32, "unit": "µg/mL"}, {"measurement": "MIC", "setting": "VRE 300 1562", "value": 128, "unit": "µg/mL"}, {"measurement": "activity in isolation against the Enterococcus strains tested", "setting": "Enterococcus strains", "value": "no significant activity"}, {"measurement": "MIC (alone) of PFOB", "setting": "E. faecalis 5659 (vanA)", "value": ">32", "unit": "µg/mL"}, {"measurement": "MIC (alone) of PFOB", "setting": "E.faecalis 78097 (van B)", "value": ">32", "unit": "µg/mL"}, {"measurement": "MIC (alone) of PFOB", "setting": "E. faecalis ATCC 29212", "value": ">32", "unit": "µg/mL"}]}
